Measurements from the supplement of paper PMC11451515.

Test system: SEM cells
Test: cell viability relative to DMSO control; higher = less cytotoxic
Settings: 48 h
Procedure, shortened: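 Viability was expressed as a per-plate percentage of DMSO wells, with cell-free wells as background. Leukemia cells (NOMO1 or SEM at 500 cells/well, P12-Ichikawa at 1000 cells/well) were adapted for at least four passages in each medium and seeded in 1536-well plates (5 μl). Library compounds in DMSO were pin-dosed over an 11-point threefold series from 47 μM to 0.79 nM, and CellTiter-Glo One luminescence was read after 48 h at 37°C.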

[1] = HPLM + 10% dialyzed FBS, 0.000781 µM
[2] = HPLM + 10% dialyzed FBS, 0.00234 µM
[3] = HPLM + 10% dialyzed FBS, 0.00702 µM
[4] = HPLM + 10% dialyzed FBS, 0.0211 µM
[5] = HPLM + 10% dialyzed FBS, 0.0632 µM
[6] = HPLM + 10% dialyzed FBS, 0.19 µM
[7] = HPLM + 10% dialyzed FBS, 0.569 µM
[8] = HPLM + 10% dialyzed FBS, 1.71 µM
[9] = HPLM + 10% dialyzed FBS, 5.12 µM
[10] = HPLM + 10% dialyzed FBS, 15.4 µM
[11] = HPLM + 10% dialyzed FBS, 46.1 µM
[12] = RPMI 5 mM glucose + 10% FBS, 0.000781 µM
[13] = RPMI 5 mM glucose + 10% FBS, 0.00234 µM
[14] = RPMI 5 mM glucose + 10% FBS, 0.00702 µM
[15] = RPMI 5 mM glucose + 10% FBS, 0.0211 µM
[16] = RPMI 5 mM glucose + 10% FBS, 0.0632 µM
[17] = RPMI 5 mM glucose + 10% FBS, 0.19 µM
[18] = RPMI 5 mM glucose + 10% FBS, 0.569 µM
[19] = RPMI 5 mM glucose + 10% FBS, 1.71 µM
[20] = RPMI 5 mM glucose + 10% FBS, 5.12 µM
[21] = RPMI 5 mM glucose + 10% FBS, 15.4 µM
[22] = RPMI 5 mM glucose + 10% FBS, 46.1 µM
[23] = RPMI 5 mM glucose + 10% dialyzed FBS, 0.000781 µM
[24] = RPMI 5 mM glucose + 10% dialyzed FBS, 0.00234 µM
[25] = RPMI 5 mM glucose + 10% dialyzed FBS, 0.00702 µM
[26] = RPMI 5 mM glucose + 10% dialyzed FBS, 0.0211 µM
[27] = RPMI 5 mM glucose + 10% dialyzed FBS, 0.0632 µM
[28] = RPMI 5 mM glucose + 10% dialyzed FBS, 0.19 µM
[29] = RPMI 5 mM glucose + 10% dialyzed FBS, 0.569 µM
[30] = RPMI 5 mM glucose + 10% dialyzed FBS, 1.71 µM
[31] = RPMI 5 mM glucose + 10% dialyzed FBS, 5.12 µM
[32] = RPMI 5 mM glucose + 10% dialyzed FBS, 15.4 µM
[33] = RPMI 5 mM glucose + 10% dialyzed FBS, 46.1 µM

Compound | cell viability [1] [%] | cell viability [2] [%] | cell viability [3] [%] | cell viability [4] [%] | cell viability [5] [%] | cell viability [6] [%] | cell viability [7] [%] | cell viability [8] [%] | cell viability [9] [%] | cell viability [10] [%] | cell viability [11] [%] | cell viability [12] [%] | cell viability [13] [%] | cell viability [14] [%] | cell viability [15] [%] | cell viability [16] [%] | cell viability [17] [%] | cell viability [18] [%] | cell viability [19] [%] | cell viability [20] [%] | cell viability [21] [%] | cell viability [22] [%] | cell viability [23] [%] | cell viability [24] [%] | cell viability [25] [%] | cell viability [26] [%] | cell viability [27] [%] | cell viability [28] [%] | cell viability [29] [%] | cell viability [30] [%] | cell viability [31] [%] | cell viability [32] [%] | cell viability [33] [%]
C[C@H]1[C@H](NC(=O)/C(=N/OC(C)(C)C(=O)O)c2csc(N)n2)C(=O)N1[S+](=O)([O-])O | 89.9 | 102 | 100 | 99.3 | 95.2 | 103 | 100 | 93.1 | 104 | 107 | 86.1 | 98.7 | 103 | 106 | 106 | 107 | 88.3 | 104 | 110 | 104 | 101 | 79.7 | 106 | 107 | 121 | 113 | 110 | 129 | 114 | 113 | 105 | 64.8 | 88.2
COC1CCC(CC1)N(C(=O)C2CCC(C)CC2)C3=C(SC(=C3)\C4=C\CCCC4)C(O)=O (centres undefined) | 111 | 120 | 119 | 117 | 113 | 117 | 104 | 115 | 112 | 84.9 | 72.1 | 114 | 111 | 124 | 128 | 144 | 134 | 122 | 121 | 121 | 82.2 | 73.5 | 116 | 114 | 112 | 128 | 138 | 108 | 120 | 137 | 104 | 75.3 | 68
CC1(C)O[C@@H]2C[C@H]3[C@@H]4CCC5=CC(=O)C=C[C@]5(C)[C@@]4(F)[C@@H](O)C[C@]3(C)[C@]2(C(=O)CO)O1 | 74.9 | 83.6 | 109 | 50.6 | 91.2 | 83.5 | 6.87 | 30.7 | 14.9 | 14.2 | 26.3 | 76.9 | 97 | 103 | 61.7 | 78.3 | 79.3 | 7.13 | 22.6 | 45.9 | 17.7 | 30.4 | 73.1 | 82.4 | 109 | 96.4 | 101 | 75.7 | 7.45 | 20.3 | 47.6 | 11.4 | 19.8
